Data taken from ChEMBL document CHEMBL2412992, “Fluorescent ligands for adenosine receptors” (Bioorg Med Chem Lett, 2013).
Calls of active or inactive are those of the source. No cut-off for these calls is given here.

Tests used:
[1] = molecular target: T1, Adenosine receptor A1 (Homo sapiens) (UniProt P30542); experiment: Displacement of [3H]DPCPX from human adenosine A1 receptor expressed in CHO cells up to 0.1 mM after 2 hrs by scintillation counting analysis; assay type: cell-based
T1 sequence (whole entry): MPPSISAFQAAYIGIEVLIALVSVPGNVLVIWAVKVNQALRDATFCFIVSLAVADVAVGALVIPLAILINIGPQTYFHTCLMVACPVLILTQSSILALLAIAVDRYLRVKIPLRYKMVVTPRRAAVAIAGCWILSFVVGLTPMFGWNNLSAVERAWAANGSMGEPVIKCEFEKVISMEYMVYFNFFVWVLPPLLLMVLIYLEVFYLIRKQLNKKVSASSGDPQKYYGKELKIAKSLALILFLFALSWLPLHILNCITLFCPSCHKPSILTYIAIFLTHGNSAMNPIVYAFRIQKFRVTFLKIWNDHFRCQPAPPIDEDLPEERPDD

[2] = molecular target: T1, Adenosine receptor A1 (Homo sapiens); experiment: Displacement of [3H]R-PIA from human adenosine A1 receptor expressed in CHO cells at 10 uM after 60 mins by […] analysis relative to control; assay type: cell-based
[3] = molecular target: T2, Adenosine receptor A2a (Homo sapiens, UniProt P29274); experiment: Displacement of [3H]CGS21680 from human adenosine A2A receptor expressed in HEK293 cells after 60 mins by […] analysis; assay type: cell-based
T2 sequence (P29274 whole entry): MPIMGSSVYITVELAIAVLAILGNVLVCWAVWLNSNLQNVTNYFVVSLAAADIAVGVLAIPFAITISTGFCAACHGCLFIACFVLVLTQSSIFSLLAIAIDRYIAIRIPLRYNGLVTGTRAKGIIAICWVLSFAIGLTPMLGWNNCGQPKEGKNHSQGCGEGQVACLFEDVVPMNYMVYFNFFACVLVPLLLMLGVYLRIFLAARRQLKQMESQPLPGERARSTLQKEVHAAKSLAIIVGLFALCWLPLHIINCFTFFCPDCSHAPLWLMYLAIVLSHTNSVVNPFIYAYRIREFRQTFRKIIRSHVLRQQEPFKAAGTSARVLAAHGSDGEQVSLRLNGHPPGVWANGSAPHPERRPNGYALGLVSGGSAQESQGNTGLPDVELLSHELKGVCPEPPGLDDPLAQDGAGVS

[4] = molecular target: T3, Adenosine receptor A3 (Homo sapiens, UniProt P0DMS8); assay type: cell-based, CHO
T3 sequence (P0DMS8 whole entry): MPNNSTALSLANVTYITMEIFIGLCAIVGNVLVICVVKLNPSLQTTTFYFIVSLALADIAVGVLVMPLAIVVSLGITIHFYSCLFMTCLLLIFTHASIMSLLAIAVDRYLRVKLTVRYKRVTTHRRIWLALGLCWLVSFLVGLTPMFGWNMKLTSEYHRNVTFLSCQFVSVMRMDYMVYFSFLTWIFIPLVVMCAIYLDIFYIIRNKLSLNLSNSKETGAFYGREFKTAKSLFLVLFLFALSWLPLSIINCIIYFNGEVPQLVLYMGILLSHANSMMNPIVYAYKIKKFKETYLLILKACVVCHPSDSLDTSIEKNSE

[5] = molecular target: T4, Adenosine receptor A1 (Homo sapiens, UniProt P30542); experiment: Displacement of [3H]DPCPX from adenosine A1 receptor in human cortical membranes; assay type: cell membranes
T4 sequence (P30542 whole entry): T1 sequence (whole entry)

[6] = molecular target: T3, Adenosine receptor A3; assay type: cell-based, CHO; remark: listed apart in the source
[7] = molecular target: T2, Adenosine receptor A2a; experiment: Displacement of [3H]CGS21680 from adenosine A2A receptor in human striatal membranes; assay type: cell membranes, Striatum, Membrane
[8] = molecular target: T4, Adenosine receptor A1; experiment: Antagonist activity at human adenosine A1 receptor expressed in CHO cells coexpressing cAMP response element assessed as inhibition of agonist-induced response by SPAP reporter gene assay in presence of forskolin; assay type: functional, cell-based
[9] = molecular target: T1, Adenosine receptor A1 (Homo sapiens); experiment: Competitive antagonist activity at GFP-tagged adenosine A1 receptor (unknown origin) expressed in CHO cells assessed as stimulation of inositol phosphate accumulation by scintillation counting analysis; assay type: functional, cell-based
[10] = molecular target: T1, Adenosine receptor A1 (Homo sapiens); experiment: Competitive antagonist activity at GFP-tagged adenosine A1 receptor (unknown origin) expressed in CHO cells assessed as inhibition of forskolin-stimulated cAMP accumulation by liquid scintillation counting analysis; assay type: functional, cell-based
[11] = molecular target: T3, Adenosine receptor A3; experiment: Binding affinity to human adenosine A3 receptor expressed in CHO cells after 90 mins; assay type: cell-based
[12] = molecular target: T4, Adenosine receptor A1; experiment: Displacement of [3H]R-PIA from human adenosine A1 receptor expressed in CHO cells after 60 mins by […] analysis; assay type: cell-based
[13] = molecular target: T3, Adenosine receptor A3; experiment: Binding affinity to human adenosine A3 receptor expressed in CHO cells by flow cytometric analysis; assay type: cell-based
[14] = molecular target: T2, Adenosine receptor A2a; experiment: Binding affinity to human adenosine A2A receptor expressed in HEK293 cells by fluorescence polarization assay; assay type: cell-based
[15] = molecular target: T3, Adenosine receptor A3
Description: Displacement of [125I]I-AB-MECA from human adenosine A3 receptor expressed in CHO cells after 90 mins by gamma counting analysis

`CCCn1c(=O)c2[nH]c(-c3ccc(OCC(=O)NCCNC(=O)CCCCCCC(=O)NCCNC(=O)CCC4=[N+]5C(=Cc6c(C)cc(C)n6[B-]5(F)F)C=C4)cc3)nc2n(CCC)c1=O` was tested, and the Activity [1] was “inactive”.
Work on `Cn1cc2c(nc(NCCCNC(=S)Nc3ccc(C4c5ccc(O)cc5OC5=CC(=O)C=CC54)c(C(=O)O)c3)n3nc(-c4ccco4)nc23)n1` (configuration not stated) yielded an inhibition [2] of 5%, a Ki [3] of 2510 nM and a Ki [4] of 2400 nM.
`CCNC(=O)[C@H]1O[C@@H](n2cnc3c(NCCCCNC(=O)CCC4=[N+]5C(=Cc6c(C)cc(C)n6[B-]5(F)F)C=C4)ncnc32)[C@H](O)[C@@H]1O` was tested, and the Activity [1] was “inactive”.
Compound `CCNC(=O)[C@H]1O[C@@H](n2cnc3c(NCCCCCCCCCCNc4ccc([N+](=O)[O-])c5nonc45)ncnc32)[C@H](O)[C@@H]1O` has a Ki [5] of 6460 nM, a Ki [6] of 28.2 nM and a Ki [7] of 6170 nM.
With `CCNC(=O)[C@H]1O[C@@H](n2cnc3c(NCCCCCCCCCCCNC(=O)COc4ccc(/C=C/C5=[N+]6C(=Cc7ccc(-c8cccs8)n7[B-]6(F)F)C=C5)cc4)ncnc32)[C@H](O)[C@@H]1O` the Kd [8] was 12.9 nM.
In the case of `CCCn1c(=O)c2[nH]c(-c3ccc(OCC(=O)NCCNC(=O)CCCCCNC(=O)COc4ccc(/C=C/C5=[N+]6C(=Cc7ccc(-c8cccs8)n7[B-]6(F)F)C=C5)cc4)cc3)nc2n(CCC)c1=O`, the pKb [9] is reported as 6.5 and the pKb [10] is reported as 6.4.
`N=c1ccc2c(-c3ccc(C(=O)NCCCCCCn4cc(CCCC(=O)Nc5nc6ccc(Cl)cc6c6nc(-c7ccco7)nn56)nn4)cc3C(=O)O)c3ccc(N)c(S(=O)(=O)O)c3oc-2c1S(=O)(=O)O` gave a Kd [11] of 6.65 nM, a Ki [12] of 87.1 nM and a Ki [3] of 74.1 nM. The Kd [13] was 5.15 nM and the Ki [4] was 6.46 nM.
`CCNC(=O)[C@H]1O[C@@H](n2cnc3c(NCCCCCCNc4ccc([N+](=O)[O-])c5nonc45)ncnc32)[C@H](O)[C@@H]1O` showed a Ki [5] greater than 10000 nM, a Ki [6] of 24 nM and a Ki [7] of 6170 nM.
With `CCNC(=O)[C@H]1O[C@@H](n2cnc3c(NCCCCCCCCNc4ccc([N+](=O)[O-])c5nonc45)ncnc32)[C@H](O)[C@@H]1O` the Ki [5] was 3550 nM, the Ki [6] was 7.41 nM and the Ki [7] was 5130 nM.
In the case of `CCNC(=O)[C@H]1O[C@@H](n2cnc3c(NCCCCCCCCNC(=O)COc4ccc(/C=C/C5=[N+]6C(=Cc7ccc(-c8cccs8)n7[B-]6(F)F)C=C5)cc4)ncnc32)[C@H](O)[C@@H]1O`, the Kd [8] is reported as 14.1 nM.
In the case of `Cn1cc2c(nc(NNC(=S)Nc3ccc(C4c5ccc(O)cc5OC5=CC(=O)C=CC54)c(C(=O)O)c3)n3nc(-c4ccco4)nc23)n1` (configuration not stated), the Ki [12] is reported as 9550 nM, the Ki [3] is reported as 933 nM and the Ki [4] is reported as 794 nM.
In the case of `N=c1ccc2c(-c3ccc(C(=O)NCCCCCCn4cc(NCCNC(=O)COc5ccc(CCCn6ncc7c6nc(N)n6nc(-c8ccco8)nc76)cc5)nn4)cc3C(=O)O)c3ccc(N)c(S(=O)(=O)O)c3oc-2c1S(=O)(=O)O`, the Kd [14] is reported as 16.5 nM.
With `Nc1nc2ccc(Cl)cc2c2nc(-c3ccco3)nn12` [CGS-15943] the Ki [15] was 35 nM.
For `CCNC(=O)[C@H]1O[C@@H](n2cnc3c(NCCCCNC(=O)CCCCCCCNS(=O)(=O)c4cccc5c(N(C)C)cccc45)ncnc32)[C@H](O)[C@@H]1O`, the Activity [1] was “inactive”.
In the case of `CCNC(=O)[C@H]1O[C@@H](n2cnc3c(NCCNc4ccc([N+](=O)[O-])c5nonc45)ncnc32)[C@H](O)[C@@H]1O`, the Ki [5] is reported as greater than 10000 nM, the Ki [6] is reported as 56.2 nM and the Ki [7] is reported as 6760 nM.
